From ChEMBL document CHEMBL6153155, “Novel Cyclohexyl Amido Acid Antagonists of Lysophosphatidic Acid Type 1 Receptor for the Treatment of Pulmonary Fibrosis” (ACS Med Chem Lett, 2025)
≈ marks a conversion by molar mass, not a printed value.

system: not listed separately; assay: Metabolic stability in human liver microsomes assessed as intrinsic clearance measured per mg of protein at 0.5 uM measured upto 45 mins in presence of NADPH regenerating system by HPLC-MS/MS analysis; type: ADME, Microsome; conditions: read-out: CLH

Row | microsomal CLint at 0.5 µM [µL/min/mg] | SMILES
1 | 7.6 | Cc1nc(-c2snc(C)c2NC(=O)O[C@H](C)c2ccccc2Cl)ccc1NC(=O)[C@H]1CCCC[C@@H]1C(=O)O
2 | 2.84 | Cc1noc(-c2ccc(NC(=O)[C@H]3CCCC[C@@H]3C(=O)O)cc2)c1NC(=O)O[C@H](C)c1ccccc1Cl

system: not listed separately; assay: Aqueous solubility of the compound at pH 7.4; type: physicochemical; conditions: buffer

Row | solubility [µM] | SMILES
3 | 503 (≈ 280 µg/mL) | Cc1nc(-c2snc(C)c2NC(=O)O[C@H](C)c2ccccc2Cl)ccc1NC(=O)[C@H]1CCCC[C@@H]1C(=O)O

biological target: BSEP (Homo sapiens, UniProt O95342); assay: (§1) Inhibition of BSEP in cryopreserved sandwich-cultured human hepatocytes by measuring reduction in TCA biliary clearance using taurocholic acid as substrate at 50 uM relative to control; type: cell-based, Hepatocyte; conditions: cryopreserved sandwich-cultured hepatocytes, probe taurocholic acid
Sequence (O95342 whole entry): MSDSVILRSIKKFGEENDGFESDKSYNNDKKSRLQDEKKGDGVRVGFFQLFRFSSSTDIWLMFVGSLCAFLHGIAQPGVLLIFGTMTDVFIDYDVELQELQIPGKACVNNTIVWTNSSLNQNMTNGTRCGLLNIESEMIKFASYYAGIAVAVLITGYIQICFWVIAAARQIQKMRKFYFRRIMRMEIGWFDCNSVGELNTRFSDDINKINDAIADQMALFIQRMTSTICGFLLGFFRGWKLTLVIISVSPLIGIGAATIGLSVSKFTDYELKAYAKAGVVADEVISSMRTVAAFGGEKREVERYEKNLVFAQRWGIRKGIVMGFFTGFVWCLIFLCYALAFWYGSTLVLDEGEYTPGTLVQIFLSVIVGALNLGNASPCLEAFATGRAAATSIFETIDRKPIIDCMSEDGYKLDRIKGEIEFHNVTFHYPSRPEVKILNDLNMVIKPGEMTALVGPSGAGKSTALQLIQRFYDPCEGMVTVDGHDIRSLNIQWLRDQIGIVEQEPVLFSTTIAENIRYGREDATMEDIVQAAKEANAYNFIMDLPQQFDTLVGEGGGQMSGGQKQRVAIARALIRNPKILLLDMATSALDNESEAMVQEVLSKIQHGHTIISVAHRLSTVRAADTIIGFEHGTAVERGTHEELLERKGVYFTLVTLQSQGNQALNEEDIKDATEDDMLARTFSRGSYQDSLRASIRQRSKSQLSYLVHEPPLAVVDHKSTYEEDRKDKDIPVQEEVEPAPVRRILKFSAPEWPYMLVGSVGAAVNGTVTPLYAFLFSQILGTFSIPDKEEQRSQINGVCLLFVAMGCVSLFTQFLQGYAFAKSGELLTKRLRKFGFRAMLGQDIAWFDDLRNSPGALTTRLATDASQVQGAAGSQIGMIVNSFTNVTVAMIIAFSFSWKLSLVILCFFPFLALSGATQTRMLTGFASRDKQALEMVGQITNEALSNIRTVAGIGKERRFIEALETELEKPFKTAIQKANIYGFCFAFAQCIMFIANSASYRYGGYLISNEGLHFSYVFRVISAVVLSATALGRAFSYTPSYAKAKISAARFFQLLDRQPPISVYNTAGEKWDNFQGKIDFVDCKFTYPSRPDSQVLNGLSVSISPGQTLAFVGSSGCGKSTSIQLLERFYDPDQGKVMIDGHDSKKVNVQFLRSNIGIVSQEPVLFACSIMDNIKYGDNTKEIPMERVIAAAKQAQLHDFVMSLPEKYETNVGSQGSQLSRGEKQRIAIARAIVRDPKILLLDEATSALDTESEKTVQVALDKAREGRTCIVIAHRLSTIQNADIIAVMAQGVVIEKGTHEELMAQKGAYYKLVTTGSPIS

Row | SMILES | inhibition at 50 µM [%]
4 | Cc1noc(-c2ccc(NC(=O)[C@@H]3CCCC[C@H]3C(=O)O)cc2)c1NC(=O)O[C@H](C)c1ccccc1Cl | 66
5 | Cc1nc(-c2snc(C)c2NC(=O)O[C@H](C)c2ccccc2Cl)ccc1NC(=O)[C@H]1CCCC[C@@H]1C(=O)O | 64
6 | Cc1noc(-c2ccc(NC(=O)[C@H]3CCCC[C@@H]3C(=O)O)cc2)c1NC(=O)O[C@H](C)c1ccccc1Cl | 72

biological target: Bile salt export pump (Homo sapiens, UniProt O95342); assay: as §1; type: cell-based, Hepatocyte; conditions: hepatocytes, 50 µM
Sequence (O95342 whole entry): as above

Row | SMILES | inhibition (INH)
7 | Cc1nc(-c2onc(C)c2Nc2cncc(C3CC3)n2)ccc1NC(=O)[C@H]1CCCC[C@@H]1C(=O)O | Not_active
8 | CCOc1cncc(Nc2c(C)noc2-c2ccc(NC(=O)[C@H]3CCCC[C@@H]3C(=O)O)c(C)n2)n1 | Not_active
9 | Cc1nc(-c2ncccc2NC(=O)O[C@H](C)c2ccccc2Cl)ccc1NC(=O)[C@H]1CCCC[C@@H]1C(=O)O | Not_active
10 | Cc1nc(-c2onc(C)c2Nc2cncc(OC3CC3)n2)ccc1NC(=O)[C@H]1CCCC[C@@H]1C(=O)O | Not_active
11 | CCNc1cncc(Nc2c(C)noc2-c2ccc(NC(=O)[C@H]3CCCC[C@@H]3C(=O)O)c(C)n2)n1 | Not_active
12 | Cc1noc(-c2ccc(NC(=O)C3CCCC(C(=O)O)C3)cc2)c1NC(=O)O[C@H](C)c1ccccc1Cl (single isomer, unassigned; diastereomer 1) | Not_active

system: not listed separately; assay: Lipophilicity, logD of compound at pH 7.4 by chromatographic hydrophobicity index method; type: physicochemical; conditions: buffer

Row | chromatographic logD | SMILES
13 | 1.55 | Cc1nc(-c2snc(C)c2NC(=O)O[C@H](C)c2ccccc2Cl)ccc1NC(=O)[C@H]1CCCC[C@@H]1C(=O)O
14 | 1.39 | Cc1noc(-c2ccc(NC(=O)[C@H]3CCCC[C@@H]3C(=O)O)cc2)c1NC(=O)O[C@H](C)c1ccccc1Cl

system: not listed separately; assay: Metabolic stability in female C57BL/6J mouse liver microsomes assessed as intrinsic clearance measured per mg of protein at 0.5 uM measured upto 45 mins in presence of NADPH regenerating system by HPLC-MS/MS analysis; type: ADME, Microsome; conditions: read-out: CLH

Row | microsomal CLint at 0.5 µM [µL/min/mg] | SMILES
15 | 7.6 | Cc1nc(-c2snc(C)c2NC(=O)O[C@H](C)c2ccccc2Cl)ccc1NC(=O)[C@H]1CCCC[C@@H]1C(=O)O
16 | 19.5 | Cc1noc(-c2ccc(NC(=O)[C@H]3CCCC[C@@H]3C(=O)O)cc2)c1NC(=O)O[C@H](C)c1ccccc1Cl
